Assays:
Assay type in all cases: cell-based, human
SUDHL-4 cells = assay: Induction of cell death in SUDHL-4 cells; details: glycolytic BCR SUDHL-4 cells
Experimental: (§1) DLBCL cells were harvested and washed twice with cold PBS. Cells were resuspended in 1× binding buffer containing Annexin V/APC (BD Biosciences Pharmingen) and 4′,6-diaminidino-2-phenylindole (DAPI, Molecular Probes) for 15 min at room temperature. The samples were subjected to cytometric analysis with a MACSQuant Analyzer 10 Flow Cytometer (Miltenyi Biotec) and the data were analyzed using the Flowjo v10.2 software.
(§2) Cell viability was assessed using trypan blue dye exclusion.

MD901 cells = assay: Induction of cell death in MD901 cells
Experimental: as §1, §2

Huh7 cells [1] = assay: Huh7 cell growth (RelB overexpressing cells); details: 4-BCA 10 μM, 48 h, vs control cells (FIG. 4B)
Experimental: (§3) Huh7 HCC cell line and genetically engineered derivatives targeting RelB expression levels (knock-down of RelB expression: Huh7 shRNA human RelB & Huh7 shRNA control; RelB overexpression: Huh7 cDNA human WT Rel & Huh7 cDNA control) were grown in MEM culture medium supplemented with 10% of fetal bovine serum (FBS), 100 U/mL penicillin, and […] streptomycin, 25 mM Hepes Buffer, 1 mM of sodium pyruvate, 1% of non-essential amino-acids (NEAA), which stands for standard culture medium. Huh7 genetically engineered cell lines were only used at passage P1 to P6. Cells passaging occurred twice a week to maintain a condition of 75% confluence. To evaluate the effect of fatty acid treatment, Huh7 cells cultured in FBS-free medium for hours were treated for 16 hours in FBS-free medium supplemented with various concentration (50 to 300 μM) of either oleic or palmitic acid along with 1% of free fatty acid bovine serum albumin.
as §2

OCILY19 cells = assay: Induction of cell death in OCILY19 cells
Experimental: as §1, §2

Huh7 cells [2] = assay: Huh7 cell death, DAPI staining; details: RelB overexpressing Huh7, palmitic acid 50 μM, 0% FBS, 48 h, in presence of 4-BCA (FIG. 4C)
Experimental: as §3, with “Huh7 cells cultured in FBS-free medium for hours were treated for 16 hours in FBS-free medium supplemented with various concentration (50 to 300 μM) of either oleic or palmitic acid along with 1% of free fatty” left out
Huh7 cells were stained with 4′, 6-diamidino-2-phenylindole (DAPI). Then, images were acquired for DAPI positive cells by fluorescent microscopy (magnification: 20×) on at least 6 different fields combined with one acquisition under white light to quantify the total number of cells in the same field. Quantification was carried out by image J software. Cell death is expressed in percentage (number of DAPI positive cells/total number of cells per field)*100).

MD901 DLBCL cell line [3] = assay: Annexin V/DAPI apoptosis assay in MD901; details: for Apoptosis by Annexin V/DAPI staining: MD901 (FIG. 8A); for Drug-induced apoptosis upon RelB-expression knockdown: RelB knocked-down MD901 vs shRNA control (FIG. 8A)
Experimental: MD901 and SUDHL-4 DLBCL cell lines were obtained from Jos6 Angel Martinez-Climent (Centro de Investigación Médica Aplicada, Pamplona, Spain).
as §1

MD901 DLBCL cell line [4] = assay: Mitochondrial transmembrane potential (TMRM) in MD901; details: RelB knocked-down MD901, TMRM low (FIG. 8B)
Experimental: For determination of mitochondrial transmembrane potential (ΔΨm), cells were stained with 100 nM of Tetramethyl rhodamine methyl ester (TMRM) (Molecular Probes) in RPMI-1640 Glutamax medium for 30 min at room temperature. Cells were evaluated by cytometric analysis as above. During apoptosis, the permeabilization of the mitochondrial outer membrane leads to loss of mitochondrial transmembrane potential (ΔΨm) corresponding to TMRM low/DAPI neg cells.

Molecule: O=C(O)/C=C/CBr [4-BCA, 4-bromocrotonic acid]
- Sensitivity to 4-BCA treatment (SUDHL-4 cells; compared with MD901 / Oci-Ly19 (not shown)): much less sensitive
- Cell death upon inhibition of fatty acid oxidation (MD901 cells; MD901, as soon as 24 hours post-treatment (FIG. 9A)): massive and rapid cell death
- Cell growth in RelB overexpressing Huh7 cells (Huh7 cells [1]): the RelB-dependent increase in Huh7 cell number was lost and cell growth rate was even lowered compared to the control cells
- Cell death upon inhibition of fatty acid oxidation (OCILY19 cells; Oci-Ly19, as soon as 24 hours post-treatment (FIG. 10A)): massive and rapid cell death
- Cell death (DAPI positive cells), RelB pro-survival effect against palmitate (Huh7 cells [2]): RelB pro-survival effect was almost completely abolished

Molecule: C=C1C(=O)OC(CCCCCCCC)C1C(=O)O (stereo not shown) [C75]
- Sensitivity to C75 (SUDHL-4 cells; compared with MD901 / Oci-Ly19): much less sensitive
- Cell death upon inhibition of fatty acid synthesis (MD901 cells; MD901, as soon as 24 hours post-treatment (FIG. 11A)): massive and rapid cell death
- Cell death upon inhibition of fatty acid synthesis (OCILY19 cells; Oci-Ly19, as soon as 24 hours post-treatment (FIG. 12A)): massive and rapid cell death

Molecule: CN(C)C(=N)N=C(N)N [Metformin, metformin]
- Apoptosis by Annexin V/DAPI staining (MD901 DLBCL cell line [3]): significant apoptosis
- Cell death induced by metformin upon knockdown of RelB expression (MD901 DLBCL cell line [3]; RelB knocked-down MD901): even more pronounced cell death
- Drug-induced apoptosis upon RelB-expression knockdown (MD901 DLBCL cell line [3]): markedly increased
- Loss of mitochondrial potential upon RelB-expression knockdown (MD901 DLBCL cell line [4]): increase in loss of mitochondrial potential

Molecule: COc1cc(Nc2ncc(F)c(Nc3ccc4c(n3)NC(=O)C(C)(C)O4)n2)cc(OC)c1OC [R406]
- Sensitivity to R406-induced apoptosis (MD901 DLBCL cell line [3]; MD901 (FIG. 6A)): insensitive

B1: Kidrolase®: L-asparaginase; catalyzes the hydrolysis of asparagine and glutamine into aspartate and glutamate (protein, UniProt P00805 23-348, looked up)
L-asparaginase 2: LPNITILATGGTIAGGGDSATKSNYTVGKVGVENLVNAVPQLKDIANVKGEQVVNIGSQDMNDNVWLTLAKKINTDCDKTDGFVITHGTDTMEETAYFLDLTVKCDKPVVMVGAMRPSTSMSADGPFNLYNAVVTAADKASANRGVLVVMNDTVLDGRDVTKTNTTDVATFKSVNYGPLGYIHNGKIDYQRTPARKHTSDTPFDVSKLNELPKVGIVYNYANASDLPAKALVDAGYDGIVSAGVGNGNLYKSVFDTLATAAKTGTAVVRSSRVPTGATTQDAEVDDAKYGFVASGTLNPQKARVLLQLALTQTKDPQQIQQIFNQY
- Apoptosis by Annexin V/DAPI staining (MD901 DLBCL cell line [3]): significant apoptosis
- Drug-induced apoptosis upon RelB-expression knockdown (MD901 DLBCL cell line [3]): markedly increased
- Loss of mitochondrial potential upon RelB-expression knockdown (MD901 DLBCL cell line [4]): increase in loss of mitochondrial potential

Source: patent publication US20250297321A1, “METHOD FOR DETECTING METABOLIC REPROGRAMING OF CANCER TOWARDS FATTY ACIDS METABOLISM” (INSTITUT NATIONAL DE LA SANTE ET DE LA RECHERCHE MEDICALE, priority 2022, published 2025)
